Our source for the IC50, inhibition and Activity values is ChEMBL document CHEMBL3875218, “Bifunctional conjugates with potent inhibitory activity towards cyclooxygenase and histone deacetylase” (Bioorg Med Chem, 2017).

For test [1], the target named is Histone deacetylase 3 (Homo sapiens, UniProt O15379). The test can be described thus: Inhibition of HDAC3 (unknown origin) after 5 hrs by SAMDI mass spectroscopic analysis.
In test [2] the target is T1, Protein deacetylase HDAC6 (Homo sapiens, UniProt Q9UBN7).
T1 sequence (Q9UBN7 whole entry): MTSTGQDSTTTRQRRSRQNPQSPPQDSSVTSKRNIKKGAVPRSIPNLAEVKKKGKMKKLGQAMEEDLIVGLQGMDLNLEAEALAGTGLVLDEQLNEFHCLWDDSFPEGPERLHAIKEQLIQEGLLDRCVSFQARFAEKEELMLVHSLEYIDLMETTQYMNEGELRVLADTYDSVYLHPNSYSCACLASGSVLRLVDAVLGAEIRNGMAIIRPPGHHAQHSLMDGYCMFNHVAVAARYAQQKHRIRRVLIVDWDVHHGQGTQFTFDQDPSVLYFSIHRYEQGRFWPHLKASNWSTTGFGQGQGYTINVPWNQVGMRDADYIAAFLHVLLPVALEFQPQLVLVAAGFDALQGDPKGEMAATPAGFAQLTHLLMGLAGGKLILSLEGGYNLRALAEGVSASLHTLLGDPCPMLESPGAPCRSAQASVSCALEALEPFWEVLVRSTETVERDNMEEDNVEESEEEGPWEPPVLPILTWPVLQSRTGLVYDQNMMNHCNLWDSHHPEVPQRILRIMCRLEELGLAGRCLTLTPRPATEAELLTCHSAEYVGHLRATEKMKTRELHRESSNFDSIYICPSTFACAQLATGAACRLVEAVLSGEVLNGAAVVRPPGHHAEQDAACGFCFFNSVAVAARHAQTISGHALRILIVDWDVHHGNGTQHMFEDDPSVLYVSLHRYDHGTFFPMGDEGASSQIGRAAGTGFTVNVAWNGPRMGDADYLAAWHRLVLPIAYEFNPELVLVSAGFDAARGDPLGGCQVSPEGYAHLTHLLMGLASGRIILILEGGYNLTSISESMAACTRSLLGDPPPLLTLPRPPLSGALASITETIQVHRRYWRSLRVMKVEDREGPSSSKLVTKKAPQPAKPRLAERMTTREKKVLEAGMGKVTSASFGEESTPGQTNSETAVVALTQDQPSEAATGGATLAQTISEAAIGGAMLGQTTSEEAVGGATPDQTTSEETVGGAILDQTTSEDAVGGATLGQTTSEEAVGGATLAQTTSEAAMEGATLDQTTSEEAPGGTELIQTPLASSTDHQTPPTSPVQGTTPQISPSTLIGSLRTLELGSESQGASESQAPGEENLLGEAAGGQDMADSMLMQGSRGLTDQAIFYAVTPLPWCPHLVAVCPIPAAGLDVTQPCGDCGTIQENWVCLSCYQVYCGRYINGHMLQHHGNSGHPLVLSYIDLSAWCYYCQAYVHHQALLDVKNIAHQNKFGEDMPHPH
The test can be described thus: Inhibition of HDAC6 (unknown origin) after 20 hrs by SAMDI mass spectroscopic analysis.

Test [3] addresses T2, Histone deacetylase 8 (Homo sapiens, UniProt Q9BY41).
T2 sequence (Q9BY41 whole entry): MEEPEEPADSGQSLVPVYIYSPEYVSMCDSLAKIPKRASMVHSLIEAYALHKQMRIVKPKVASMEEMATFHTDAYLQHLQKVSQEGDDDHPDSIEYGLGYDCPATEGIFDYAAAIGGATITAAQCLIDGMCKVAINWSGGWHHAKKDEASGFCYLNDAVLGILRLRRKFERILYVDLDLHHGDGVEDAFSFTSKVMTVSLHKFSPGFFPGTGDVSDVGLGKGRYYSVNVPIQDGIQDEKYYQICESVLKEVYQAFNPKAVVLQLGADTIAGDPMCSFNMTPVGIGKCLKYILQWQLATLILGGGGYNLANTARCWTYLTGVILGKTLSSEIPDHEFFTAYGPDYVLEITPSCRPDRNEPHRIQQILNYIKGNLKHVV
The test can be described thus: Inhibition of HDAC8 (unknown origin) after 2.5 hrs by SAMDI mass spectroscopic analysis.

In test [4] the target is T3, Prostaglandin G/H synthase 2 (Homo sapiens) (UniProt P35354).
T3 sequence (whole entry): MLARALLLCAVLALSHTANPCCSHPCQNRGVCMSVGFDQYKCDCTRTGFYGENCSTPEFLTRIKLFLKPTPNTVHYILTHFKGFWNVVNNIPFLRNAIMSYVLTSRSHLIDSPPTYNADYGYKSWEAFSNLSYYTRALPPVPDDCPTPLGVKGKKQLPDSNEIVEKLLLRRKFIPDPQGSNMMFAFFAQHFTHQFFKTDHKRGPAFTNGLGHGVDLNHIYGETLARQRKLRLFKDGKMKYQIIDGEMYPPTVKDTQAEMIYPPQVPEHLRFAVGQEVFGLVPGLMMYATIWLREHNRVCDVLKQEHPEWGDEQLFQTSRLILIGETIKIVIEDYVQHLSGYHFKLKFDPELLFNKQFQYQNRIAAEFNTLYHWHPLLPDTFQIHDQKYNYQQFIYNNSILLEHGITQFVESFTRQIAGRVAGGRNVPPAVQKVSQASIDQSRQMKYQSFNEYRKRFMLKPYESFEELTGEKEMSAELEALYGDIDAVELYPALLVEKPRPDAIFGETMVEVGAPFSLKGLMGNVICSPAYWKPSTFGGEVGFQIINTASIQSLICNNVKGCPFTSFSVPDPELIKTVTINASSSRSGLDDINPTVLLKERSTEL
The test can be described thus: Inhibition of recombinant human COX2 at 10 uM using arachidonic acid as substrate preincubated for 15 mins followed by substrate addition for 2 mins by Cayman based fluorescence assay.

A short description of test [5]: Cytotoxicity against human A549 cells assessed as cell growth inhibition after 72 hrs by MTT assay. The test is classed as functional, cell-based. As to conditions: A549, 72 h.
Test [6] can be described thus: Cytotoxicity against human HCT116 cells assessed as cell growth inhibition after 72 hrs by MTT assay. The test is classed as functional, cell-based. To be noted: HCT-116, 72 h.
The nature of test [7]: Cytotoxicity against human LNCAP cells assessed as cell growth inhibition after 72 hrs by MTT assay. The test is classed as functional, cell-based.
The nature of test [8]: Cytotoxicity against human HeLa cells assessed as cell growth inhibition after 72 hrs by MTT assay.
Test [9] deals with LNCaP. The test can be described thus: Inhibition of HDAC in human LNCAP cells assessed as down regulation of androgen receptor expression after 24 hrs by Western blot analysis. The class given is cell-based.
The subject of test [10] is LNCaP. The test can be described thus: Inhibition of HDAC in human LNCAP cells assessed as down regulation of COX2 expression at 2 uM after 24 hrs by Western blot analysis. The test is classed as cell-based.
The test system of test [11] is LNCaP. The test can be described thus: Induction of cell cycle arrest in human LNCAP cells assessed as accumulation at G1 phase at 2.5 uM after 24 hrs by propidium iodide staining based FACS analysis (reference value: 69.5%). The test is classed as functional.
In test [12] the test system is LNCaP. The test can be described thus: Induction of cell cycle arrest in human LNCAP cells assessed as accumulation at S phase at 2.5 uM after 24 hrs by propidium iodide staining based FACS analysis (reference value: […]). The test is classed as functional.
The test system of test [13] is LNCaP. The test can be described thus: Induction of cell cycle arrest in human LNCAP cells assessed as accumulation at G2 phase at 2.5 uM after 24 hrs by propidium iodide staining based FACS analysis (reference value: 1.08%). The test is classed as functional.
Test [14] concerns LNCaP. The test can be described thus: Inhibition of HDAC in human LNCAP cells assessed as down regulation of COX2 expression at 2 to 10 uM after 24 hrs by Western blot analysis. The class given is cell-based.

The source made the active and inactive calls. No cut-off for these calls is given here.

Sequence of Histone deacetylase 3 (O15379 whole entry): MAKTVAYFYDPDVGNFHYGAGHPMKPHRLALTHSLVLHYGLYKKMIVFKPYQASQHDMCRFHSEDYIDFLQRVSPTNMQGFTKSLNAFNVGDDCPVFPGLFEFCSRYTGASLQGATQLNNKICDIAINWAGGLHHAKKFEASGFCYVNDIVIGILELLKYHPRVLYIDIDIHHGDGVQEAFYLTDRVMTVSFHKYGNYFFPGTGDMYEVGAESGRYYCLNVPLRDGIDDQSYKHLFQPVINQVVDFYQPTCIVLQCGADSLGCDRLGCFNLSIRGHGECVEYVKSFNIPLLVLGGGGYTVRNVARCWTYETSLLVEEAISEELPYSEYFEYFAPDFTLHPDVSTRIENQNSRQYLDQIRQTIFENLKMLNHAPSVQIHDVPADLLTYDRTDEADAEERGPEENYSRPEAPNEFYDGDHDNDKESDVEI

For the compound `Cc1ccc(-c2cc(C(F)(F)F)nn2-c2ccc(S(=O)(=O)NCCCCCCC(=O)NO)cc2)cc1`, the concentration for half-maximal inhibition (IC50) was 424 nM in test [1]; 66 nM in test [2]; 412 nM in test [3]; 8 µM in test [5]; 3.38 µM in test [6]; 2190 nM in [7]. Besides, the IC50 in test [8] stood at 6.5 µM. Besides, the inhibition was 100% in [4] and “Dose-dependent effect” in [9]. Besides, in test [10], the inhibition result is “Active”. Further, the Activity is 57.4% in [11], 31.7% in test [12] and 1.4% in test [13].

Consider `COc1ccc2c(c1)c(CC(=O)NCCCCCCC(=O)NO)c(C)n2C(=O)c1ccc(Cl)cc1`, for which the IC50 in test [1] is 356 nM; in test [2] it was 49 nM; in test [3] it was 109 nM; in test [8] it was 8.87 µM. In test [4], the inhibition came out at 98.1%. The inhibition entry in [14] is “Active”. The Activity in test [11] is recorded as 62.5%.
